Assay results published in US12318403B2, “2′3′-cyclic dinucleotides and prodrugs thereof” (INSTITUTE OF ORGANIC CHEMISTRY AND BIOCHEMISTRY ASCR, V.V.I., priority 2019, dated 2025).
Like-named read-outs stand apart in the source and are kept apart here.

Test system: peripheral blood mononuclear cell (PBMC)
Assay: Peripheral blood mononuclear cell assay
Settings: compounds 1h, washed, 15 hour incubation, average of one to four donors
[1] = read-out: PBMC EC50 IFN-α, interferon-alpha level in medium
[2] = read-out: PBMC EC50 IFN-γ, interferon-gamma level in medium
[3] = read-out: PBMC EC50 TNF-α, tumor necrosis factor-alpha level in medium

Experimental: Selected compounds were tested in an in vitro peripheral blood mononuclear cell (PBMC) assay. […] Serially diluted tested compounds were added to wells in 50 μl of cultivation medium and cells were incubated with the compounds for 1h at 37° C. with 5% CO2. Plates with cells were then spun 500 g for 5 minutes and the medium was removed. Cells were washed twice with the cell culture medium by the use of centrifugation and gently resuspended in 100 μl medium without compounds. After 15 hour incubation at 37° C. with 5% CO2, the cell culture medium was collected and the levels of interferon-alpha (INF-α), interferon-gamma (INF-γ) and tumor necrosis factor-alpha (TNF-α) were determined with ProcartaPlex Assays (ThermoFisher, Waltham, USA) and MAGPIX System (Merck KGaA, Darmstadt, Germany). […] Values reported are an average of runs from one to four donors.

With `CCCCCCCCCC(=O)Oc1ccc(CSP2(=O)OC[C@H]3O[C@@H](n4cnc5c(N)ncnc54)[C@H](F)[C@@H]3OCP(=O)(O)OC[C@H]3O[C@@H](n4cnc5c(=O)[nH]c(N)nc54)[C@H](O2)[C@@H]3F)cc1` (single isomer, unassigned) [Compound 35a] the EC50 [1] was 2600 nM, the EC50 [2] was 3200 nM and the EC50 [3] was 1900 nM.

Molecule `CCCCCCCCCCCC(=O)Oc1ccc(CSP2(=O)OC[C@H]3O[C@@H](n4cnc5c(N)ncnc54)[C@H](F)[C@@H]3OCP(=O)(O)OC[C@H]3O[C@@H](n4cnc5c(=O)[nH]c(N)nc54)[C@H](O2)[C@@H]3F)cc1` (single isomer, unassigned) [Compound 38a] has an EC50 [1] of 1400 nM, an EC50 [2] of 2600 nM and an EC50 [3] of 1400 nM.

`CC(C)(C)C(=O)OCOc1ccc(CSP2(=O)OC[C@H]3O[C@@H](n4cnc5c(N)ncnc54)[C@H](F)[C@@H]3OCP(=O)(O)OC[C@H]3O[C@@H](n4cnc5c(=O)[nH]c(N)nc54)[C@H](O2)[C@@H]3F)cc1` (single isomer, unassigned) [Compound 39b] was tested, and the EC50 [1] was 900 nM, the EC50 [2] was 1400 nM and the EC50 [3] was 1000 nM.

For `CCCCCC(=O)Oc1ccc(C(=O)Oc2ccc(CSP3(=O)OC[C@H]4O[C@@H](n5cnc6c(N)ncnc65)[C@H](F)[C@@H]4OCP(=O)(O)OC[C@H]4O[C@@H](n5cnc6c(=O)[nH]c(N)nc65)[C@H](O3)[C@@H]4F)cc2)cc1` (single isomer, unassigned) [Compound 40b], the EC50 [1] was 8100 nM, the EC50 [2] was 10400 nM and the EC50 [3] was 10400 nM.

In the case of `CCCCCCCCCCCC(=O)OCSP1(=O)OC[C@H]2O[C@@H](n3cnc4c(N)ncnc43)[C@H](F)[C@@H]2OCP(=O)(O)OC[C@H]2O[C@@H](n3cnc4c(=O)[nH]cnc43)[C@H](O1)[C@@H]2F` (single isomer, unassigned) [Compound 56a], the EC50 [1] is reported as 1600 nM, the EC50 [2] is reported as 2200 nM and the EC50 [3] is reported as 1800 nM.

`CCCCCCCCCCCC(=O)OCSP1(=O)OC[C@H]2O[C@@H](n3cnc4c(N)ncnc43)[C@H](F)[C@@H]2OCP(=O)(O)OC[C@H]2O[C@@H](n3cnc4c(=O)[nH]cnc43)[C@H](O1)[C@@H]2F` (single isomer, unassigned) [Compound 56b] showed an EC50 [1] of 3000 nM, an EC50 [2] of 1300 nM and an EC50 [3] of 2000 nM.

Work on `CCCCCCCCCCCC(=O)OCSP1(=O)OC[C@H]2O[C@@H](n3cnc4c(N)ncnc43)[C@H](F)[C@@H]2OCP(=O)(O)OC[C@H]2O[C@@H](n3cnc4c(=O)[nH]c(N)nc43)[C@H](O1)[C@@H]2F` (single isomer, unassigned) [Compound 57b] yielded an EC50 [1] of 1700 nM, an EC50 [2] of 2500 nM and an EC50 [3] of 1600 nM.

`CCCCCCCCCCCCCCCC(=O)OCSP1(=O)OC[C@H]2O[C@@H](n3cnc4c(N)ncnc43)[C@H](F)[C@@H]2OCP(=O)(O)OC[C@H]2O[C@@H](n3cnc4c(=O)[nH]cnc43)[C@H](O1)[C@@H]2F` (single isomer, unassigned) [Compound 64a] was tested, and the EC50 [1] was 600 nM, the EC50 [2] was 2600 nM and the EC50 [3] was 400 nM.

`CCCCCCCCCCCCCCCC(=O)OCSP1(=O)OC[C@H]2O[C@@H](n3cnc4c(N)ncnc43)[C@H](F)[C@@H]2OCP(=O)(O)OC[C@H]2O[C@@H](n3cnc4c(=O)[nH]cnc43)[C@H](O1)[C@@H]2F` (single isomer, unassigned) [Compound 64b] showed an EC50 [1] of 1400 nM, an EC50 [2] of 800 nM and an EC50 [3] of 2000 nM.

`CCCCCCCCCCCCCC(=O)OCSP1(=O)OC[C@H]2O[C@@H](n3cnc4c(N)ncnc43)[C@H](F)[C@@H]2OCP(=O)(O)OC[C@H]2O[C@@H](n3cnc4c(=O)[nH]cnc43)[C@H](O1)[C@@H]2F` (single isomer, unassigned) [Compound 68a] gave an EC50 [1] of 900 nM, an EC50 [2] of 1000 nM and an EC50 [3] of 600 nM.

In the case of `Nc1nc2c(ncn2[C@@H]2O[C@@H]3COP(=O)(O)O[C@H]4[C@@H](O)[C@H](n5cnc6c(N)ncnc65)O[C@@H]4COP(=O)(O)O[C@@H]2[C@@H]3O)c(=O)[nH]1` [2′3′-cGAMP, c[G(2′,5′)pA(3′,5′)p], reference compound], the EC50 [1] is reported as 300000 nM, the EC50 [2] is reported as 164000 nM and the EC50 [3] is reported as 210000 nM.

With `CCCCCCCCCCCCOC(=O)OCSP1(=O)OC[C@H]2O[C@@H](n3cnc4c(N)ncnc43)[C@H](F)[C@@H]2OCP(=O)(O)OC[C@H]2O[C@@H](n3cnc4c(=O)[nH]cnc43)[C@H](O1)[C@@H]2F` (stereo partly drawn) [Compound 58b, {[(1S,6R,8R,9R,10R,16R,18R,19R)-8-(6-amino-9H-purin-9-yl)-9,19-difluoro-13-hydroxy-3,13-dioxo-18-(6-oxo-6,9-dihydro-1H-purin-9-yl)-2,4,7,11,14,17-hexaoxa-3λ^5,13λ^5-diphosphatricyclo[14.2.1.0^6,10]nonadecan-3-yl]sulfanyl}methyl dodecyl carbonate] the EC50 [1] was 1200 nM, the EC50 [2] was 1900 nM and the EC50 [3] was 1300 nM.

`CCCCCCCCCCCCOC(=O)OCSP1(=O)OC[C@H]2O[C@@H](n3cnc4c(N)ncnc43)[C@H](F)[C@@H]2OCP(=O)(O)OC[C@H]2O[C@@H](n3cnc4c(=O)[nH]c(N)nc43)[C@H](O1)[C@@H]2F` (stereo partly drawn) [Compound 59b, {[(1S,6R,8R,9R,10R,16R,18R,19R)-18-(2-amino-6-oxo-6,9-dihydro-1H-purin-9-yl)-8-(6-amino-9H-purin-9-yl)-9,19-difluoro-13-hydroxy-3,13-dioxo-2,4,7,11,14,17-hexaoxa-3λ^5,13λ^5-diphosphatricyclo[14.2.1.0^6,10]nonadecan-3-yl]sulfanyl}methyl dodecyl carbonate] was tested, and the EC50 [1] was 1800 nM, the EC50 [2] was 2200 nM and the EC50 [3] was 2100 nM.

In the case of `CCCCCCCC(=O)OCSP1(=O)OC[C@H]2O[C@@H](n3cnc4c(N)ncnc43)[C@H](F)[C@@H]2OCP(=O)(O)OC[C@H]2O[C@@H](n3cnc4c(=O)[nH]cnc43)[C@H](O1)[C@@H]2F` (stereo partly drawn) [Compound 63b, {[(1S,6R,8R,9R,10R,16R,18R,19R)-8-(6-amino-9H-purin-9-yl)-9,19-difluoro-13-hydroxy-3,13-dioxo-18-(6-oxo-6,9-dihydro-1H-purin-9-yl)-2,4,7,11,14,17-hexaoxa-3λ^5,13λ^5-diphosphatricyclo[14.2.1.0^6,10]nonadecan-3-yl]sulfanyl}methyl octanoate], the EC50 [1] is reported as 9000 nM, the EC50 [2] is reported as 3700 nM and the EC50 [3] is reported as 8000 nM.

With `CCCCCCCCCCCCCCOC(=O)OCSP1(=O)OC[C@H]2O[C@@H](n3cnc4c(N)ncnc43)[C@H](F)[C@@H]2OCP(=O)(O)OC[C@H]2O[C@@H](n3cnc4c(=O)[nH]cnc43)[C@H](O1)[C@@H]2F` (stereo partly drawn) [Compound 72b, {[(1S,6R,8R,9R,10R,16R,18R,19R)-8-(6-amino-9H-purin-9-yl)-9,19-difluoro-13-hydroxy-3,13-dioxo-18-(6-oxo-6,9-dihydro-1H-purin-9-yl)-2,4,7,11,14,17-hexaoxa-3λ^5,13λ^5-diphosphatricyclo[14.2.1.0^6,10]nonadecan-3-yl]sulfanyl}methyl tetradecyl carbonate] the EC50 [1] was 1700 nM, the EC50 [2] was 800 nM and the EC50 [3] was 1600 nM.

With `CCCCCCCCCCCCCCCCOC(=O)OCSP1(=O)OC[C@H]2O[C@@H](n3cnc4c(N)ncnc43)[C@H](F)[C@@H]2OCP(=O)(O)OC[C@H]2O[C@@H](n3cnc4c(=O)[nH]cnc43)[C@H](O1)[C@@H]2F` (stereo partly drawn) [Compound 73b, {[(1S,6R,8R,9R,10R,16R,18R,19R)-8-(6-amino-9H-purin-9-yl)-9,19-difluoro-13-hydroxy-3,13-dioxo-18-(6-oxo-6,9-dihydro-1H-purin-9-yl)-2,4,7,11,14,17-hexaoxa-3λ^5,13λ^5-diphosphatricyclo[14.2.1.0^6,10]nonadecan-3-yl]sulfanyl}methyl hexadecyl carbonate] the EC50 [1] was 3000 nM, the EC50 [2] was 7000 nM and the EC50 [3] was 4000 nM.
